Data on three molecules can be found in patent US20040180895A1, “Use of a pyridazinone derivative” (priority 2001, published 2004).

Data set [1] in a line: Plasma concentrations following 24 h levosimendan infusion in heart failure patients. Type of data set: in vivo, human. The note with it: levosimendan 0.2 μg/kg/min for 24 hours; for half-life: human, plasma, intravenous, 0.2 ug/kg, FIG. 1, read-out: elimination half-life (converted). Here is the method:
Plasma concentrations of levosimendan and its active metabolite (R)-N-[4-(1,4,5,6-tetrahydro-4-methyl-6-oxo-3-pyridazinyl)phenyl]acetamide (OR-1896) following administration of 0.2 μg/kg/min of levosimendan for 24 hours in heart failure patients are shown in FIG. 1.

In the next data set the test system is plasma proteins. The data set can be described thus: Plasma protein binding. Type of data set: in vitro ADME. The settings on record: read-out: bound to plasma proteins (converted). From the text: It is known that the favourable hemodynamic effects following intravenous administration of levosimendan are seen considerably longer than levosimendan concentrations are observed in plasma. […] However, it has also been discovered that only about 30% of the active metabolite is bound to plasma proteins whereas as much as 98% of levosimendan is bound to plasma proteins. Therefore, the active free concentration of the active metabolite in plasma is proportionally much higher than that of levosimendan.

For data set [2], the system named is congestive heart failure patients. The data set is described as follows: All-cause mortality (Kaplan Meier) in congestive heart failure patients, dobutamine controlled studies. The note with it: intravenous levosimendan 0.1-0.2 μg/kg/min for 24 hours vs dobutamine; FIG. 2. Type of data set: in vivo, human.
Data set [3] can be described thus: Elimination half-life of the active ingredient in man. The settings on record: human, in vivo. From the text: The active ingredient of the invention may be administered periodically, e.g. weekly or biweekly, or daily or several times a day, depending on the patient's needs. […] Therefore, a periodical treatment, e.g. weekly, may be satisfactory.

Consider `C[C@@H]1CC(=O)NN=C1c1ccc(NN=C(C#N)C#N)cc1` [levosimendan], for which, in data set [1], the half-life – broadly, the time in which the quantity being followed falls by half – is about 1.3 h. Besides, the “plasma concentrations after discontinuation of infusion” value in data set [1] (one day after discontinuation) is on record as “not detectable one day after the discontinuation of infusion”. In the data set on plasma proteins, the fraction unbound is 0.02. Further, the “all-cause mortality (0-14 days), Kaplan Meier survival curves” value in data set [2] is recorded as “survival curves are clearly diverging throughout the observation period”.

`CC(=O)Nc1ccc(C2=NNC(=O)CC2C)cc1` (centres unmarked) [(I), N-[4-(1,4,5,6-tetrahydro-4-methyl-6-oxo-3-pyridazinyl)phenyl]acetamide]: the half-life in data set [3] is about 72 h.

Turning to `CC(=O)Nc1ccc(C2=NNC(=O)C[C@H]2C)cc1` [OR-1896, (R)-N-[4-(1,4,5,6-tetrahydro-4-methyl-6-oxo-3-pyridazinyl)phenyl]acetamide], in data set [1], the half-life was about 77 h. Also, the “time plasma concentrations are detectable after the infusion” value in data set [1] (FIG. 1) is given as 12 days. For the same molecule, the fraction unbound in the data set on plasma proteins was about 0.7.
